Reference: paper PMC6554663, “Pharmaceutical Effects of Inhibiting the Soluble Epoxide Hydrolase in Canine Osteoarthritis” (Frontiers in Pharmacology, 2019)
≈ marks a conversion by molar mass, not a printed value. Where “and” joins values, the source holds several entries; their conditions need not be identical. Identical values can stand only once. Entries after “also recorded” stand apart in the source; their conditions may differ. Like-named read-outs stand apart in the source and are kept apart here.

What was measured:
Solubility of sEHI = format: physicochemical
Procedure: […] The non-dissolved compounds were filtered through a 0.22 μm centrifuge filter at 40°C and the supernatant was further diluted 10 times with methanol. The samples were analyzed by LC/MS-MS.

Microsomal stability = format: in vitro ADME, dog; conditions: 60 min, 37°C
Procedure: Male and female dog liver microsomes (Xenotech) were diluted in potassium phosphate buffer (0.1M, pH 7.4), MgCl2 (3.15 mM), and sodium EDTA (1.05 mM) to a final protein concentration of 1 mg/mL. Compounds were added at 0.1 mM in methanol at 1% and microsomes were activated with 5% (v/v) NADPH regenerating system (100 μL sodium phosphate buffer (0.1M, pH 7.4), 50 μL, glucose-6-phosphate in sodium phosphate buffer (0.1M, pH 7.4), 50 μL NADP+ in sodium phosphate (0.1M, pH 7.4), and 50 μL of 100 Units/mL of […]). […] Compounds were incubated without microsomes or NADPH as negative controls.

[1] = PK analysis in satellite dogs; format: in vivo, dog; conditions: for half-life / AUC(0-t) / Cmax: whole blood; for AUC(0-t) / Cmax: po
Procedure: (§1) Eight satellite dogs (2 per each group) had whole blood collected for PK analysis on study Days […]. On Day 1, blood was collected immediately prior to dosing, and again at 0.25, 0.5, 1, 2, 4, 6, and 8 (±5 min) after dosing. On Day 2 through 4, blood was collected 0.5 h (±5 min) after dosing. On Day 5 blood was collected immediately prior to dosing, and again at 0.25, 0.5, 1, 2, 4, 6, 8 (±5 min), 24, 48, and 72 h (±30 min) post treatment. […] For all blood samples, a minimum of 3 mL of whole blood was collected from a suitable vein as per written and approved standard operating procedures. The blood was transferred to K2EDTA (spray dried) blood tube and inverted gently multiple times to ensure proper mixing of the blood and anticoagulant. On study Day 5, synovial fluid was collected by arthrocentesis immediately after the subject completed the questionnaire (approximately […] after dosing). Subjects were anesthetized as per written and approved Standard Operating Procedures. A minimum of 0.1 mL of synovial fluid was collected from each subject. Samples were frozen in an upright position and stored at -80°C ± 4°C before being shipped to UC Davis for analysis.
For PK analysis in the satellite group, individual parameters were calculated by fitting blood concentrations to a non-compartmental analysis using Kinetica software (Thermo Fisher Scientific version 5.1). Using the log-linear trapezoidal method, the area under the curve were calculated and were extrapolated to infinity using the last measured plasma concentration (Clast), defined as the timepoint collected 72 h after the last dose or 8 hr after the first dose on day 1, divided by the terminal slope (λz).

[2] = Blood and synovial fluid concentrations in treated osteoarthritic dogs; format: in vivo, dog; conditions: for Blood concentration D5 / Synovial fluid concentration D1 / Synovial fluid concentration D5: po, qd x 5, detected EC3039, individual dogs;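 for Synovial fluid concentration D1: synovial fluid also sampled on Day 1 after the pain assessment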
Procedure: as §1
Pain and function were assessed by a questionnaire answered by blinded technicians based on observation of study animals housed at InterVivo. The survey was adapted from the canine brief pain inventory (CBPI), which was developed based on clinical questionnaires in which owners score the function and pain level of their pets with existing pain conditions ([Brown et al., 2007]). Modifications to the questionnaire attempted to account for differences between owner pain evaluation of pets and pain evaluation of laboratory dogs by technical staff. For survey administration, blinded technicians attempted to elicit objective behavior-specific measures of function and pain level across a variety of normal canine behaviors (e.g., walking, trotting, galloping, rearing, and stair-climbing, etc.). For this, one technician was responsible for soliciting the relevant behaviors from a dog using encouragement and/or food rewards, while the evaluating technician scored function and observable pain using the modified CBPI questionnaire. Subjects were tested daily on Days -7 through -3, to develop baseline scores, and again on Days 1 through 5 administered 1.5 h after dosing. Dosing occurred in the morning, and observations were recorded 1.5 h after dosing, to limit time-of-day variability. Questions are listed in Supplementary Table S3. Animals in treatment groups had blood and synovial fluid collected ∼2 h after the last dose on day 5 (immediately following the study questionnaire) to confirm plasma concentrations in treated animals. Full pharmacokinetic assessments were collected from a satellite group of animals so as not to interfere with pain assessment.

aged beagle dogs with OA = experiment: Tolerability, adverse events and body weight in the dog study; format: in vivo
Procedure: The study was conducted as a blinded, parallel matched-group design. Dogs were randomized into groups based on pretreatment pain scores and each group was randomly assigned a treatment. Prior to randomization, each dog was assessed for arthritis by radiograph to assess the severity of OA by presence of osteophytes, subchondral sclerosis or joint effusion each scored on a scale of 0 (least) to 3 (worst) for each of 12 joints. Severity of the radiograph score was included in the randomization protocol and distributed between the groups, and there were no statistical differences between the averages of each group. Individual radiograph scores can be found in Supplementary Table S2. […] Vehicle group consisted of 5 mL PEG300 in capsule. Concurrent medications were not allowed and not needed during the study.

[3] = female, beagle, dog, 1 mg/kg, dosed EC3039 1 mg/kg oral qd, female dog, Day 1, detected EC3039, blood
[4] = female, beagle, dog, 1 mg/kg, dosed EC3039 1 mg/kg oral qd, female dog, Day 5, detected EC3039, blood
[5] = female, beagle, dog, 5 mg/kg, dosed EC3039 5 mg/kg oral qd, female dog, Day 1, detected EC3039, blood
[6] = female, beagle, dog, 5 mg/kg, dosed EC3039 5 mg/kg oral qd, female dog, Day 5, detected EC3039, blood
[7] = male, beagle, dog, 1 mg/kg, dosed EC3039 1 mg/kg oral qd, male dog, Day 1, detected EC3039, blood
[8] = male, beagle, dog, 1 mg/kg, dosed EC3039 1 mg/kg oral qd, male dog, Day 5, detected EC3039, blood
[9] = male, beagle, dog, 5 mg/kg, dosed EC3039 5 mg/kg oral qd, male dog, Day 1, detected EC3039, blood

solubility (Solubility of sEHI; PEG300, organic solvent or mixture): 99 ± 1 mg/mL (≈ 219 mM) | solubility at 24 h (Solubility of sEHI; aqueous buffer, thermodynamic from solid, PBS pH 7.4, 40°C, 24 h): 0.13 ± 0.015 mg/mL (≈ 0.287 mM) | % Parent + NADPH (Microsomal stability; female dog liver microsomes): 85% and 85 ± 2% | % Parent − NADPH (Microsomal stability; female dog liver microsomes): 93 ± 5% | % Parent − NADPH (Microsomal stability; male dog liver microsomes): 97 ± 4% | EC3039 in blood of dogs administered EC1728 ([1]; EC1728 at 1 mg/kg or 5 mg/kg): no detectable amounts | blood concentrations relative to IC50 for sEH ([1]; all treatment groups, duration of the study): exceeded the IC50 | fold increase in AUC after fivefold increase in dose ([1]; beagle, dog, in vivo): ~18 fold | fold increase in Cmax after fivefold increase in dose ([1]; beagle, dog, in vivo): 30 to 40 fold | half-life ([1]; beagle, dog, oral, satellite dogs, range over both compounds, Table 3, read-out: half-life): 24 to 40 h | half-life ([1]; beagle, dosed EC3039 1 mg/kg oral qd, female dog, Day 5, detected EC3039, blood, read-out: T1/2 (converted)): 40 h | half-life ([1]; beagle, dosed EC3039 1 mg/kg oral qd, male dog, Day 5, detected EC3039, blood, read-out: T1/2 (converted)): 33 h | half-life ([1]; beagle, dosed EC3039 5 mg/kg oral qd, female dog, Day 5, detected EC3039, blood, read-out: T1/2 (converted)): 25 h | half-life ([1]; beagle, dosed EC3039 5 mg/kg oral qd, male dog, Day 5, detected EC3039, blood, read-out: T1/2 (converted)): 27 h | portion metabolized by demethylation to form EC1728 ([1]; dogs dosed EC3039): < 10% | AUC(0-t) [1, 3]: 3940 ng·h/mL | Cmax [1, 3]: 568 ng/mL | AUC(0-t) [1, 4]: 361000 ng·h/mL | Cmax [1, 4]: 17300 ng/mL | AUC(0-t) [1, 5]: 67200 ng·h/mL | Cmax [1, 5]: 18000 ng/mL | AUC(0-t) [1, 6]: 589000 ng·h/mL | Cmax [1, 6]: 30900 ng/mL | AUC(0-t) [1, 7]: 2490 ng·h/mL | Cmax [1, 7]: 400 ng/mL | AUC(0-t) [1, 8]: 72100 ng·h/mL | Cmax [1, 8]: 2300 ng/mL | AUC(0-t) [1, 9]: 46500 ng·h/mL | Cmax [1, 9]: 16900 ng/mL | Cmax ([1]; male, beagle, dog, 5 mg/kg, dosed EC3039 5 mg/kg oral qd, male dog, Day 5, detected EC3039, blood): 32100 ng/mL | sEHI in blood and synovial fluid relative to dogs treated with EC1728 ([2]; high dose group (5 mg/kg)): ~10 × | sEHI in blood and synovial fluid relative to dogs treated with EC1728 ([2]; low dose group (1 mg/kg)): approximately 2 ×
SMILES: CN(C(=O)N[C@H]1CC[C@H](Oc2ccc(C(=O)O)cc2)CC1)c1ccc(OC(F)(F)F)cc1 [EC3039, trans-4-{4-[3-methyl-3-(4-trifluoromethoxy-phenyl)-ureido]-cyclohexyloxy}-benzoic acid]
Blood concentration D5 ([2]; dosed EC3039 1 mg/kg, 1 mg/kg): 126 ng/mL and 176 ng/mL and 5340 ng/mL and 347 ng/mL and 346 ng/mL and 81 ng/mL and 408 ng/mL and 328 ng/mL | Synovial fluid concentration D1 ([2]; dosed EC3039 1 mg/kg, 1 mg/kg): 1220 ng/mL and 2710 ng/mL and 4100 ng/mL and 3350 ng/mL and 3100 ng/mL and 1390 ng/mL and 3430 ng/mL and 2100 ng/mL | Synovial fluid concentration D5 ([2]; dosed EC3039 1 mg/kg, 1 mg/kg): 1630 ng/mL and 1480 ng/mL and 11900 ng/mL and 1840 ng/mL and 1440 ng/mL and 586 ng/mL and 2190 ng/mL and 1930 ng/mL | Blood concentration D5 ([2]; dosed EC3039 5 mg/kg, 5 mg/kg): 859 ng/mL and 672 ng/mL and 5550 ng/mL and 6250 ng/mL and 722 ng/mL and 6190 ng/mL and 5650 ng/mL and 929 ng/mL | Synovial fluid concentration D1 ([2]; dosed EC3039 5 mg/kg, 5 mg/kg): 5850 ng/mL and 13570 ng/mL and 14290 ng/mL and 14240 ng/mL and 5220 ng/mL and 14300 ng/mL and 14700 ng/mL and 9520 ng/mL | Synovial fluid concentration D5 ([2]; dosed EC3039 5 mg/kg, 5 mg/kg): 5830 ng/mL and 4640 ng/mL and 9960 ng/mL and 12400 ng/mL and 16100 ng/mL and 11700 ng/mL and 5960 ng/mL | health case noted during treatment: relation to treatment (aged beagle dogs with OA; EC3039 1 mg/kg, individual dogs, 1 mg/kg): EC3039 – 1mg/kg / Not Related; also recorded: EC3039 – 1mg/kg / Unlikely Related | health case noted during treatment: relation to treatment (aged beagle dogs with OA; EC3039 5 mg/kg, individual dog, moist dermatitis of ventral neck): EC3039 – 5mg/kg / Not Related
